What was measured:
SKOV-3 (ovarian cancer) = experiment: In vitro cytotoxicity of camptothecin analogues (CellTiter-Glo); type: cell-based; details: Homo sapiens, SK-OV-3, 96 h, read-out: pIC50 SKOV-3 (converted)
Protocol: (§1) In vitro potency was assessed on multiple cancer cell lines: SK-BR-3 (breast cancer), SKOV-3 (ovarian cancer), Calu-3 (lung cancer), ZR-75-1 (breast cancer) and MDA-MB-468 (breast cancer). Serial dilutions of camptothecin analogues were prepared in RPMI 1640+10% FBS, and 20 μL of each dilution was added to 384-well plates. Cells cultured in log-phase growth were detached by brief incubation in 0.05% Trypsin and resuspended in respective culturing media at 20,000 cells/mL (with the exception of ZR-75 cells, which were resuspended at 10,000 cells/mL). 50 μL of cell suspension was then added to the plates containing test articles. Cells were incubated with test articles for 4 d at 37° C. (with the exception of ZR-75 cells, which were incubated for 5 d). Growth inhibition was assessed by CellTiter-Glo® (Promega Corporation, Madison, WI) and luminescence was measured on a plate reader. IC50 values were determined by GraphPad Prism (GraphPad Software, San Diego CA).

[1] = test system: MDA-MB-468 (breast cancer); experiment: as above; type: cell-based; details: Homo sapiens, MDA-MB-468, 96 h, read-out: pIC50 MDA-MB-468 (converted)
Protocol: as §1

SK-BR-3 (breast cancer) = experiment: as above; type: cell-based; details: Homo sapiens, SK-BR-3, 96 h, read-out: pIC50 SKBR-3 (converted)
Protocol: as §1

Calu-3 (lung cancer) = experiment: as above; type: cell-based; details: Homo sapiens, Calu-3, 96 h, read-out: pIC50 Calu-3 (converted)
Protocol: as §1

ZR-75-1 (breast cancer) = experiment: as above; type: cell-based; details: Homo sapiens, ZR-75-1, 120 h, read-out: pIC50 ZR-75 (converted)
Protocol: as §1

hepatocellular carcinoma = details: adults with HCC; cited from earlier work

| Compound | IC50 (SKOV-3 (ovarian cancer)) [nM] | IC50 [1] [nM] | IC50 (SK-BR-3 (breast cancer)) [nM] | IC50 (Calu-3 (lung cancer)) [nM] | IC50 (ZR-75-1 (breast cancer)) [nM] | efficacy in clinical trials, in words (hepatocellular carcinoma) | safety in clinical trials, in words (hepatocellular carcinoma) |
| --- | --- | --- | --- | --- | --- | --- | --- |
| CC[C@@]1(O)C(=O)OCc2c1cc1n(c2=O)Cc2c-1nc1cc(F)c(N)cc1c2CN=[N+]=[N-] [Compound 152, (S)-9-amino-11-(azidomethyl)-4-ethyl-8-fluoro-4-hydroxy-1,12-dihydro-14H-pyrano[3′,4′:6,7]indolizino[1,2-b]quinoline-3,14(4H)-dione] | 2.88 | 5.01 | 3.24 | 1.48 | – | – | – |
| CC[C@@]1(O)C(=O)OCc2c1cc1n(c2=O)Cc2c-1nc1cc(F)c(C)cc1c2CNS(=O)(=O)c1ccc(N)cc1 [Compound 127, (S)-4-amino-N-((4-ethyl-8-fluoro-4-hydroxy-9-methyl-3,14-dioxo-3,4,12,14-tetrahydro-1H-pyrano[3′,4′:6,7]indolizino[1,2-b]quinolin-11-yl)methyl)benzenesulfonamide] | 14.5 | 3.8 | 3.31 | 9.33 | 5.25 | – | – |
| codrituzumab: "Codrituzumab, also known as GC33 or RG-7686"; antibody targeting GPC3 tested clinically "as a bivalent IgG"; "reference antibody codrituzumab" | – | – | – | – | – | limited efficacy | good safety profile |
| CC[C@@]1(O)C(=O)OCc2c1cc1n(c2=O)Cc2c-1nc1cc(F)c(C)cc1c2CNS(C)(=O)=O [Compound 122, (S)-N-((4-ethyl-8-fluoro-4-hydroxy-9-methyl-3,14-dioxo-3,4,12,14-tetrahydro-1H-pyrano[3′,4′:6,7]indolizino[1,2-b]quinolin-11-yl)methyl)methanesulfonamide] | 9.12 | 1.1 | 1.12 | 3.72 | 1.29 | – | – |
| CC[C@@]1(O)C(=O)OCc2c1cc1n(c2=O)Cc2c-1nc1cc(F)c(C)cc1c2CNS(=O)(=O)c1ccccc1 [Compound 125, (S)-N-((4-ethyl-8-fluoro-4-hydroxy-9-methyl-3,14-dioxo-3,4,12,14-tetrahydro-1H-pyrano[3′,4′:6,7]indolizino[1,2-b]quinolin-11-yl)methyl)benzenesulfonamide] | 7.08 | 3.8 | 1.32 | 2.82 | 1.32 | – | – |
| CC[C@@]1(O)C(=O)OCc2c1cc1n(c2=O)Cc2c-1nc1cc(F)c(C)cc1c2CN1CCN(c2ccc(N)cc2)CC1 [Compound 108, (S)-11-((4-(4-aminophenyl)piperazin-1-yl)methyl)-4-ethyl-8-fluoro-4-hydroxy-9-methyl-1,12-dihydro-14H-pyrano[3′,4′:6,7]indolizino[1,2-b]quinoline-3,14(4H)-dione] | 55 | 47.9 | 29.5 | 40.7 | 18.6 | – | – |
| CC[C@@]1(O)C(=O)OCc2c1cc1n(c2=O)Cc2c-1nc1cc(F)c(C)cc1c2CN1CCSCC1CO (stereo partly drawn) [Compound 114, (4S)-4-ethyl-8-fluoro-4-hydroxy-11-((3-(hydroxymethyl)thiomorpholino)methyl)-9-methyl-1,12-dihydro-14H-pyrano[3′,4′:6,7]indolizino[1,2-b]quinoline-3,14(4H)-dione] | 0.178 | 0.417 | 0.107 | 0.0933 | – | – | – |
| CC[C@@]1(O)C(=O)OCc2c1cc1n(c2=O)Cc2c-1nc1cc(F)c(OC)cc1c2CNS(=O)(=O)c1ccc(N)cc1 [Compound 128, (S)-4-amino-N-((4-ethyl-8-fluoro-4-hydroxy-9-methoxy-3,14-dioxo-3,4,12,14-tetrahydro-1H-pyrano[3′,4′:6,7]indolizino[1,2-b]quinolin-11-yl)methyl)benzenesulfonamide] | 18.2 | 8.32 | 5.25 | – | 4.27 | – | – |
| CC[C@@]1(O)C(=O)OCc2c1cc1n(c2=O)Cc2c-1nc1cc(F)c(OC)cc1c2CNC(=O)NCc1ccc(N)cc1 [Compound 135, (S)-1-(4-aminobenzyl)-3-((4-ethyl-8-fluoro-4-hydroxy-9-methoxy-3,14-dioxo-3,4,12,14-tetrahydro-1H-pyrano[3′,4′:6,7]indolizino[1,2-b]quinolin-11-yl)methyl)urea] | – | 10.7 | 12.3 | – | 13.2 | – | – |
| CC[C@@]1(O)C(=O)OCc2c1cc1n(c2=O)Cc2c-1nc1cc(F)c(C)cc1c2CN1C2CCC1(CO)CC2 [Compound 121] | 0.195 | 0.269 | 0.148 | 0.145 | – | – | – |
| CC[C@@]1(O)C(=O)OCc2c1cc1n(c2=O)Cc2c-1nc1cc(F)c(C)cc1c2CNS(N)(=O)=O [Compound 131, (S)-((4-ethyl-8-fluoro-4-hydroxy-9-methyl-3,14-dioxo-3,4,12,14-tetrahydro-1H-pyrano[3′,4′:6,7]indolizino[1,2-b]quinolin-11-yl)methyl)sulfamide] | – | 9.12 | 1.05 | 9.12 | 0.955 | – | – |
| CC[C@@]1(O)C(=O)OCc2c1cc1n(c2=O)Cc2c-1nc1cc(F)c(C)cc1c2CN1CCO[C@@H](CO)C1 [Compound 113, (S)-4-ethyl-8-fluoro-4-hydroxy-11-(((R)-2-(hydroxymethyl)morpholino)methyl)-9-methyl-1,12-dihydro-14H-pyrano[3′,4′:6,7]indolizino[1,2-b]quinoline-3,14(4H)-dione] | 4.27 | 3.39 | 1.95 | 3.02 | 2.19 | – | – |

Reference: patent US20250295799A1, “ANTIBODY-DRUG CONJUGATES TARGETING GLYPICAN-3 AND METHODS OF USE” (Zymeworks BC Inc., priority 2022, published 2025)
